From the supplement of paper PMC11616607 come the findings set out here.

One test concerns HOSE1C. As to the kind of experiment: drug sensitivity score (DSS) from 5-point dose-response viability curve (DSS (area-under-curve based score)); higher = more sensitive (stronger growth inhibition or killing); extreme values may be limits of the assay. The following applies: exposure time: 72 h; concentration range: 5 concentrations over 10,000-fold range. Put shortly: (§1)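 Drug sensitivity scores were calculated in Breeze software for each cell line and drug pair; higher scores indicate more sensitivity. A score of zero indicates no response. The underlying assay used 384-well plates: drugs were placed by an Echo 550 acoustic dispenser at five concentrations spanning a 10,000-fold range, 1,500 ovarian cancer or normal ovarian cells were added per well, and cells were kept 3 days at 37°C, 5% CO2. Viability was then measured with CellTiter-Glo luminescence on a PHERAstar FS.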
`Nc1cc(COc2c(Cl)cc(C[C@H](N)C(=O)O)cc2Cl)c2oc(-c3ccccc3)nc2c1` [JPH203] showed a drug sensitivity score of 0.

Turning to `CC(C)NC(=O)COc1cccc(-c2nc(Nc3ccc4[nH]ncc4c3)c3ccccc3n2)c1` [KD025], the drug sensitivity score was determined as 0.

`CS(=O)(=O)CCNCc1ccc(-c2ccc3ncnc(Nc4ccc(OCc5cccc(F)c5)c(Cl)c4)c3c2)o1` [Lapatinib] returned a drug sensitivity score of 0.

Consider `O=C(Nc1cnn2ccc(N3CCC[C@@H]3c3cc(F)ccc3F)nc12)N1CC[C@H](O)C1` [Larotrectinib], for which the drug sensitivity score is 0.

`Oc1ccc2c(c1)CC[C@H](c1ccccc1)[C@@H]2c1ccc(OCCN2CCCC2)cc1` [Lasofoxifene] had a drug sensitivity score of 0.

For `Nc1cccc2c1CN(C1CCC(=O)NC1=O)C2=O` (stereo not drawn) [Lenalidomide], the drug sensitivity score was 0.

Molecule `COc1cc2nccc(Oc3ccc(NC(=O)NC4CC4)c(Cl)c3)c2cc1C(N)=O` [Lenvatinib] showed a drug sensitivity score of 0.4.

`N#Cc1ccc(C(c2ccc(C#N)cc2)n2cncn2)cc1` [Letrozole] returned a drug sensitivity score of 0.

In turn, `Cc1ccc(F)c(NC(=O)Nc2ccc(-c3cccc4[nH]nc(N)c34)cc2)c1` [Linifanib] gave a drug sensitivity score of 0.

As for `C[C@]1(O)C[C@@H](c2nc(-c3ccc4ccc(-c5ccccc5)nc4c3)c3c(N)nccn32)C1` [Linsitinib], the drug sensitivity score is 0.7.

As to `CCNCCS(=O)(=O)NC[C@@]1(c2ccccc2)SC(NC(=O)C(C)(C)C)=NN1C(=O)C(C)(C)C` [Litronesib], the drug sensitivity score turned out to be 25.

Take `Nc1nc(OCc2cc(Br)cs2)c2[nH]cnc2n1` [Lomeguatrib]: the drug sensitivity score came to 0.

Regarding `NC(=O)N1CCC(CC(=O)N2CCC([C@H]3c4ncc(Br)cc4CCc4cc(Cl)cc(Br)c43)CC2)CC1` [Lonafarnib], the drug sensitivity score came to 8.

Molecule `Cc1c(F)cc(C(=O)NC2CC2)cc1-c1ccc(C(=O)NCC(C)(C)C)cn1` [Losmapimod] had a drug sensitivity score of 0.

With `CC[C@H](C)C(=O)O[C@H]1C[C@@H](C)C=C2C=C[C@H](C)[C@H](CC[C@@H]3C[C@@H](O)CC(=O)O3)[C@H]21` [Lovastatin], the drug sensitivity score was 7.5.

In turn, `CNC(=O)c1cccc2cc(Oc3ccnc4cc(OCC5(N)CC5)c(OC)cc34)ccc12` [Lucitanib] showed a drug sensitivity score of 1.5.

`CCNC(=O)c1noc(-c2cc(C(C)C)c(O)cc2O)c1-c1ccc(CN2CCOCC2)cc1` [Luminespib] showed a drug sensitivity score of 23.1.

In turn, `O=C(O)CC[C@H]1CC[C@@](c2cc(F)ccc2F)(S(=O)(=O)c2ccc(Cl)cc2)CC1` [MK-0752] returned a drug sensitivity score of 0.

For the molecule `NC1(c2ccc(-c3nc4ccn5c(=O)[nH]nc5c4cc3-c3ccccc3)cc2)CCC1` [MK-2206], the drug sensitivity score came to 2.1.

Turning to `O=C(c1cccc(Cl)c1F)N1CCN(Cc2cccc(Nc3nccs3)n2)CC1` [MK-8745], the drug sensitivity score came out at 2.1.

On to `Cn1cc(-c2cnn3c(N)c(Br)c([C@@H]4CCCNC4)nc23)cn1` [MK-8776], for which the drug sensitivity score is 5.1.

Consider `Cc1cnc(-c2ccccc2C(C)C)nc1NCc1ccc(-n2ccnn2)cc1` [ML323], for which the drug sensitivity score amounted to 0.

For the molecule `O=C(CCNC(=O)c1ccc(OC(F)(F)F)cc1)N[C@@H]1CCCc2ccccc21` [ML390], the drug sensitivity score was 19.8.

Take `O=C(Nc1cccc(NC(=O)c2cccc(O)c2O)c1)c1cccc(O)c1O` [MST-312]: the drug sensitivity score was determined as 11.9.

Take `CNC(=O)[C@@H](NC(=O)[C@H](CC(C)C)[C@H](O)C(=O)NO)C(C)(C)C` [Marimastat]: the drug sensitivity score stood at 0.

`Cc1ccc(NC(=O)c2ccc(CN3CCN(C)CC3)cc2)cc1Nc1nc(-c2cccnc2)cs1` [Masitinib] displayed a drug sensitivity score of 1.8.

`CC(=O)O[C@]1(C(C)=O)CC[C@H]2[C@@H]3C=C(C)C4=CC(=O)CC[C@]4(C)[C@H]3CC[C@@]21C` [Megestrol acetate] came in with a drug sensitivity score of 0.

Molecule `CCN(CC)CCCC(C)Nc1c2ccc(Cl)cc2nc2ccc(OC)cc12` (stereo not drawn) [Mepacrine] gave a drug sensitivity score of 9.7.

Molecule `S=c1[nH]cnc2nc[nH]c12` [Mercaptopurine] returned a drug sensitivity score of 0.

`Cc1ccc(C(=O)Nc2ccc(Oc3cc4cnn(C)c4cc3-c3cn[nH]c3)c(F)c2)c(=O)n1-c1ccc(F)cc1` [Merestinib] returned a drug sensitivity score of 0.

`CN(C)C(=N)NC(=N)N` [Metformin] came in with a drug sensitivity score of 0.

`CN(Cc1cnc2nc(N)nc(N)c2n1)c1ccc(C(=O)N[C@@H](CCC(=O)O)C(=O)O)cc1` [Methotrexate]: the drug sensitivity score stood at 13.7.

In the next test the test system is OV90. The test is described as above. The following applies: exposure time: 72 h; concentration range: 5 concentrations over 10,000-fold range. In short, it runs like this: as §1
Molecule `Nc1cc(COc2c(Cl)cc(C[C@H](N)C(=O)O)cc2Cl)c2oc(-c3ccccc3)nc2c1` [JPH203] registered a drug sensitivity score of 0.

With `CC(C)NC(=O)COc1cccc(-c2nc(Nc3ccc4[nH]ncc4c3)c3ccccc3n2)c1` [KD025], the drug sensitivity score came out at 8.7.

With `CS(=O)(=O)CCNCc1ccc(-c2ccc3ncnc(Nc4ccc(OCc5cccc(F)c5)c(Cl)c4)c3c2)o1` [Lapatinib], the drug sensitivity score stood at 0.

In the case of `O=C(Nc1cnn2ccc(N3CCC[C@@H]3c3cc(F)ccc3F)nc12)N1CC[C@H](O)C1` [Larotrectinib], the drug sensitivity score stood at 0.

`Oc1ccc2c(c1)CC[C@H](c1ccccc1)[C@@H]2c1ccc(OCCN2CCCC2)cc1` [Lasofoxifene] registered a drug sensitivity score of 0.

For the molecule `Nc1cccc2c1CN(C1CCC(=O)NC1=O)C2=O` (stereo not drawn) [Lenalidomide], the drug sensitivity score is 0.

With `COc1cc2nccc(Oc3ccc(NC(=O)NC4CC4)c(Cl)c3)c2cc1C(N)=O` [Lenvatinib], the drug sensitivity score was 0.1.

Take `N#Cc1ccc(C(c2ccc(C#N)cc2)n2cncn2)cc1` [Letrozole]: the drug sensitivity score is 0.

In the case of `Cc1ccc(F)c(NC(=O)Nc2ccc(-c3cccc4[nH]nc(N)c34)cc2)c1` [Linifanib], the drug sensitivity score was 0.

Turning to `C[C@]1(O)C[C@@H](c2nc(-c3ccc4ccc(-c5ccccc5)nc4c3)c3c(N)nccn32)C1` [Linsitinib], the drug sensitivity score was 0.9.

Consider `CCNCCS(=O)(=O)NC[C@@]1(c2ccccc2)SC(NC(=O)C(C)(C)C)=NN1C(=O)C(C)(C)C` [Litronesib], for which the drug sensitivity score worked out at 11.6.

`Nc1nc(OCc2cc(Br)cs2)c2[nH]cnc2n1` [Lomeguatrib] returned a drug sensitivity score of 0.

For the molecule `NC(=O)N1CCC(CC(=O)N2CCC([C@H]3c4ncc(Br)cc4CCc4cc(Cl)cc(Br)c43)CC2)CC1` [Lonafarnib], the drug sensitivity score was 15.8.

The molecule `Cc1c(F)cc(C(=O)NC2CC2)cc1-c1ccc(C(=O)NCC(C)(C)C)cn1` [Losmapimod] gave a drug sensitivity score of 1.5.

`CC[C@H](C)C(=O)O[C@H]1C[C@@H](C)C=C2C=C[C@H](C)[C@H](CC[C@@H]3C[C@@H](O)CC(=O)O3)[C@H]21` [Lovastatin] gave a drug sensitivity score of 1.3.

As to `CNC(=O)c1cccc2cc(Oc3ccnc4cc(OCC5(N)CC5)c(OC)cc34)ccc12` [Lucitanib], the drug sensitivity score was 1.1.
